Patent publication US7589080B2, “β-cyclodextrin compositions, and use to prevent transmission of sexually transmitted diseases” (priority 2000, dated 2009)

Tests used:
Type in all cases: cell-based
HIV-infected H9 cells = experiment: Syncytium assay with HIV-1 infected cells; conditions: for Syncytia (/HPF): with HIV-infected H9 cells
Procedure: Syncytium assays were carried out essentially as previously described (Hildreth and Orentas, supra, 1989). Briefly, cell lines or PHA blasts were treated with 20 mM 2-OH-βCD in RPMI 1640 or medium alone for 1 hr at 37° C. before washing twice with PBS. The treated cells were then mixed with HIV-1 infected cells, each at density of 2×10^6/ml, in cRPMI and incubated at 37° C. Syncytia were scored and photographed 3 to 6 hr after mixing. For free-virus mediated syncytium assays (“fusion from without”), HIV-1RF from infected PM1 culture supernatants were clarified by 0.45 Tm filtration (p24 concentration greater than 500 ng/ml). 2-OH-βCD-treated and non-treated cell lines were added to the virus preparations and incubated at 37° C. for 3 hr before counting syncytia.
CD4+SupTl T cells formed numerous large syncytia within 3 hr after the addition of HIV-1MN-infected H9 cells. […] No syncytia were apparent in this culture for more than 15 hr, which can reflect the recovery time for cholesterol in the βCD treated T cells. 2-OH-βCD was washed out after the 1 hr treatment and was not present during the co-cultivation step. As such, the effects are not a result of a steric blockade by 2-OH-βCD, which can bind to cells.
The effect of βCD treatment on HIV-induced fusion of several other cell lines also was examined. Four CD4+, CXCR4+cell lines, SupT1, H9, PM1, and MT2, were treated with 2-OH-βCD and tested for syncytium formation with HIV-1-infected cells.

CD4 = experiment: Flow cytometry of CD4 surface expression
Procedure: (§1) Flow cytometry was performed as previously described (Orentas and Hildreth, supra, 1993). Briefly, 2×10^5 2-OH-βCD treated or untreated cells in 100 μl PBS containing 5% normal goat serum (NGS) were added to 100 μl of MAb (1-5 μg) and incubated 30 min on ice. In comparative experiments we prefixed the cells with 2% paraformaldehyde in PBS immediately after 2-OH-βCD treatment. Cells were washed with PBS, resuspended in 100 μl of PBS, 5% NGS containing 2 Tg of FITC conjugated-goat anti-mouse IgG (FITC-GAM) and incubated 1 h on ice. Cells were then washed with PBS and fixed with 2% paraformaldehyde followed by analysis on an EPICS Profile II flow cytometer.
(§2) Cholesterol depletion also promoted CXCR4 down-modulation by MAb-induced internalization. A possible explanation for the inhibition of syncytium formation by cholesterol depletion as described above is that CD4, CRs, or both are lost from the cell surface, for example, by extrusion from the membrane in vesicles after loss of cholesterol, or they could be internalized. To explore these possibilities, βCD treated cells were examined for expression of HIV receptors by flow cytometry. […] In contrast, cell surface expression of CXCR4 was reduced by 50% or more in all of the cells after 2-OH-βCD treatment (Table 1).
(§3) In order to determine whether the loss of CXCR4 expression was due to MAb-induced internalization, cells were fixed with 2% paraformaldehyde in PBS immediately after 2-OH-βCD treatment and before staining with MAbs for flow cytometry.

CXCR4 = experiment: Flow cytometry of CXCR4 surface expression
Procedure: as §1, §2, §3

[1] = system: HIV-1 primary strain 97.534, dual-tropic (X4R5); experiment: Primary virus infection assay, isolate 97.534; conditions: PHA blasts treated with 10 mM; p24 after 6 days
Procedure: Peripheral blood mononuclear cells (PBMCS) were isolated by Ficoll-Hypaque centrifugation from buffy coats obtained from the Johns Hopkins Hemapheresis Center. Cells were stimulated for 3 days with 3 Tg/ml PHA, washed with iRPMI, and treated with 10 mM 2-OH-βCD in cRPMI for 1 hr. Cells were then washed twice with iRPMI and resuspended in cRPMI (1×10^6/ml) supplemented with 50 U/ml IL-2 and containing primary HIV-1 strains at 20 ng/ml p24. Cells were incubated with virus for 24 hr at 37° C. before washing twice with iRPMI. Cells were then resuspended in cRPMI supplemented with 50 U/ml IL-2 and cultured for 6 days at 37° C. Supernatants were collected and p24 was quantitated by standard p24 ELISA.
βCD treatment blocks HIV-1 virus infection. HIV-1 can spread in cell cultures without necessarily exerting cytopathic effects. […] To test the effects of cholesterol depletion on HIV-1 infection of primary T cells by free virus, PHA blasts were treated with 10 mM 2-OH-βCD or medium alone, then were exposed to HIV-1 for 2 hr before washing to remove input virus. Viability and growth of the PHA blasts was not affected by treatment with the βCD under the conditions used. P24 release was measured after an addition 6 days in culture. Two primary strains of HIV-1, 97.099 and 97.534, M-tropic (R5) and dual-tropic (X4R5), respectively, were tested.

[2] = H9, 20 mM, fixed with 2% paraformaldehyde immediately after treatment
[3] = H9 cells, 20 mM, not fixed before staining
[4] = MT2 cells, 20 mM, not fixed before staining
[5] = PM1, 20 mM, fixed with 2% paraformaldehyde immediately after treatment
[6] = PM1 cells, 20 mM, not fixed before staining
[7] = SupT1, 20 mM, fixed with 2% paraformaldehyde immediately after treatment
[8] = SupT1 cells, 20 mM, not fixed before staining
[9] = cells fixed immediately after treatment, before MAb staining

2-hydroxypropyl-β-cyclodextrin [2-OH-βCD]
Syncytium formation of SupT1 cells with HIV-1MN-infected H9 cells (HIV-infected H9 cells; 1 hr treatment, washed out before co-cultivation): completely inhibited | Syncytia (/HPF) (HIV-infected H9 cells; H9 cells treated with 20 mM): 0 /HPF | Syncytia (/HPF) (HIV-infected H9 cells; MT2 cells treated with 20 mM): 0 /HPF | Syncytia (/HPF) (HIV-infected H9 cells; PM1 cells treated with 20 mM): 0 /HPF | Syncytium formation with HIV-1-infected cells (HIV-infected H9 cells; SupT1, H9, PM1 and MT2 cell lines, in each case): completely blocked | Syncytia (/HPF) (HIV-infected H9 cells; SupT1 cells treated with 20 mM): 0 /HPF | Time without apparent syncytia (HIV-infected H9 cells; treated SupT1 cells with HIV-1MN-infected H9 cells): more than 15 hr | CD4 (MCF) (CD4; [2]): 50 MCF | CD4 (MCF) (CD4; [3]): 20.9 MCF | CD4 (MCF) (CD4; [4]): 62.2 MCF | CD4 expression after treatment (CD4; PHA blasts or any of the cell lines tested): did not change | CD4 (MCF) (CD4; [5]): 129 MCF | CD4 (MCF) (CD4; [6]): 85.9 MCF | CD4 (MCF) (CD4; [7]): 213 MCF | CD4 (MCF) (CD4; [8]): 188.3 MCF | CD4 expression on the cell surface (CD4; [9]): remained unchanged | CXCR4 (MCF) (CXCR4; [2]): 55 MCF | CXCR4 (MCF) (CXCR4; [3]): 6.7 MCF | CXCR4 (MCF) (CXCR4; [4]): 16.7 MCF | CXCR4 (MCF) (CXCR4; [5]): 64 MCF | CXCR4 (MCF) (CXCR4; [6]): 3.1 MCF | CXCR4 (MCF) (CXCR4; [7]): 91 MCF | CXCR4 (MCF) (CXCR4; [8]): 15.0 MCF | Reduction of cell surface expression of CXCR4 (CXCR4; all of the cells, not fixed before staining): ≥ 50% | Anti-CXCR4 MAb staining compared to control cells (CXCR4; cells fixed and permeabilized after the MAb binding step): no significant reduction | CXCR4 expression on the cell surface (CXCR4; [9]): remained unchanged | Inhibition of infection of PHA blasts by isolate 97.534 (p24 release) [1]: more than 70%
